Laboratory results: patent US12606529B2, “Sulfur and amide tropolone inhibitors of nucleotidyl transferases and uses therefor” (Saint Louis University, priority 2019, dated 2026)
In brackets after ≈: the same amount, converted by molar mass. Like-named read-outs stand apart in the source and are kept apart here.

Experiments:
in vitro = settings: human, HepDES19 cells
HSV-1 = assay: Anti-HSV-1 replication assay (Vero cells, plaque titer); assay type: cell-based, herpes simplex virus 1; settings: for log reduction at 5 µM / log reduction at 1 µM / log reduction at 0.33 µM: Human alphaherpesvirus 1, Vero, values separated by / are repeats; for log reduction at 5 µM: compound at 5 μM; for log reduction at 1 µM: compound at 1 μM; for log reduction at 0.33 µM: compound at 0.33 μM, read-out: HSV-1 suppression 0.33 μM
human RNaseH1 = biological target: T1, human RNaseH1 (Homo sapiens, UniProt O60930); assay: Biochemical inhibition of human RNaseH1 activity
T1 sequence (O60930 1-286): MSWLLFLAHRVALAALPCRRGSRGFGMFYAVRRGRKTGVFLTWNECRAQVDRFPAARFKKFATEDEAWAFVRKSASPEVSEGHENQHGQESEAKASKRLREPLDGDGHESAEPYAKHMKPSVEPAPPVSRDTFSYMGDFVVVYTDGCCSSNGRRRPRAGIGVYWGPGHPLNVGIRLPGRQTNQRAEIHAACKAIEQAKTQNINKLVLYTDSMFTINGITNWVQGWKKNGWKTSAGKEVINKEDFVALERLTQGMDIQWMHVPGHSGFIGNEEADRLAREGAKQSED
Procedure: Biochemical inhibition of human RNaseH1 activity. Quantitative inhibition of the human RNaseH1 in the biochemical assays was assessed using a molecular beacon assay as described previously (Edwards et al., 2017). Recombinant human RNaseH 1 (0.3 μg) was incubated with 100 nM RNA:DNA substrate, 50 mM HEPES pH 8.0, 100 mM NaCl, 2 mM Tris(2-carboxyethyl)phosphine hydrochloride (TCEP), 0.05% Tween20, 5 units of RNaseOut, test compounds (0 to 500 μM), and 5% DMSO in a 100 μL reaction volume. The substrate was formed by annealing a complementary RNA oligonucleotide to a hairpin DNA oligonucleotide to hold the hairpin DNA oligonucleotide in an open conformation. The DNA oligonucleotide has a 5′ fluorescein reporter and a 3′ black hole quencher. When the RNA is degraded from the substrate the DNA oligonucleotide closes to form a hairpin structure, decreasing in signal intensity. Reactions were initiated with 5 mM MgCl2 and fluorescence was read using a Synergy HTS multi-mode plate reader at 37° C. Alternatively, the HBV RNaseH version used was MBP-HRHgtCΔ5, a genotype C isolate which lacks the C-terminal 35 amino acids of the HBV RNaseH domain that are predicted to be unstructured. Quantitative inhibition of the human RNaseH1 in biochemical assays was assessed using a FRET-based RNaseH assay under conditions previously reported for an RNaseH molecular beacon assay (Edwards et al., 2017). […] Cleavage of the RNA strand released the fluorescein from quenching, increasing fluorescence. Reactions were monitored for 90 min at 37° C. in a plate reader and initial reaction rates were calculated. Reactions contained escalating concentrations of the compounds.

[1] = system: C. neoformans var. grubii, KN99; assay: C. neoformans growth inhibition assay (limiting dilution); assay type: cell-based, Cryptococcus neoformans; settings: Cryptococcus neoformans
Procedure: Cell types used for C. neoformans studies. All inhibition assays were performed with C. neoformans var. grubii, KN99 (serotype A, MAT). Two clinical strains of C. neoformans var. grubii, serotype A, were provided by Tamara Doering and Andre Spec. […] Cells were diluted to OD650 0.001 in YNB-02 02 (0.67% yeast nitrogen base, 0.2% dextrose, pH 7.0 with 50 mM MOPs)+1% DMSO prior to addition to the plates for the inhibition assays.
C. neoformans growth inhibition assays. Compounds were tested in a limiting dilution assay with a starting optical density (at 650 nm) of 0.001 in YNB-02 plus 1% DMSO. Cells plus compound were incubated in 96-well clear round bottom plates covered with a Breath-easy® membrane without shaking for 48 hours at 35° C. Before measuring cell density, plates were shaken on a microtiter plate shaker at 900 rpm for 3 minutes to resuspend cells and optical density was measured at 650 nm. […] Each assay was done in triplicate and all values are the average of two or more independent assays. The data are presented as the average cell density as a percent of DMSO-only treated cells. MICs are reported as the minimal concentration needed to inhibit 80% of C. neoformans growth relative to vehicle-treated controls.

HBV replication = HBV replication inhibition in HepDES19 cells (strand-preferential qPCR); settings: Hepatitis B virus
Procedure: Cells used for toxicity and HBV studies.
HBV replication inhibition studies. HepDES19 cells were seeded in 96-well plates at 4×10^4 cells per well in the absence of tetracycline. Test compounds in a final DMSO concentration of 1% were applied to cells 48 hours after induction of HBV replication and cells were incubated with compounds for 72 hours. Cells were washed in 200 μL of phosphate buffered saline (PBS) and lysed in 150 μL of core lysis buffer (10 mM Tris pH 7.4, 1% Tween20, 150 mM NaCl). Cells were incubated at room temperate on an orbital shaker at 350 rpm for 40 minutes. Cell lysate was transferred to a 96 well polymerase chain reaction (PCR) plate and centrifuged at 3300×g for 5 minutes. The supernatant (50 μL) from the cell lysate was transferred to a 96-well PCR plate and mixed with 20 units of micrococcal nuclease and 100 μM CaCl2. The lysate was incubated for 1 hour at 37° C., and then the nuclease was inactivated at 70° C. for ten minutes. Qiagen protease (0.005 Anson units) was added to the lysate and the mixture was incubated overnight. Qiagen protease was then inactivated at 95° C. for ten minutes.
The crude lysate was used as the template for strand-preferential quantitative polymerase chain reaction (q-PCR) analysis. Quantitative PCR was performed with 40 cycles of 95° C. for 15 s and 60° C. for 1 minute employing the Kappa Probe Force universal PCR master mix.

[2] = Table 2 amides, read-out: HSV-1 suppression 5 μM
[3] = Table 2 amides, read-out: HuRH1 IC50
[4] = 48 h, Table 2 amides, 48 h, 35° C., tested 0.19 to 50 μM, read-out: C. neoformans MIC80
[5] = HepDES19, 72 h, Table 2 amides, HBV replication, HepDES19 cells, plus-polarity DNA, 72 h
[6] = HepDES19, read-out: EC50 against HBV replication
[7] = CC50, Table 3 sulfur compounds, MTT
[8] = Table 3 sulfur compounds, read-out: HSV-1 suppression 1 μM
[9] = Table 3 sulfur compounds, read-out: HSV-1 suppression 5 μM
[10] = 48 h, Table 3 sulfur compounds, 48 h, 35° C., read-out: C. neoformans MIC80
[11] = HepDES19, read-out: HBV EC50, Table 3 sulfur compounds, HBV replication, HepDES19 cells
[12] = read-out: MIC80 against C. neoformans

| Compound | CC50 at 24 h (in vitro; CC50 (μM), Table 2 amides, MTT) | IC50 (human RNaseH1; [3]) | MIC80 [1, 4] | EC50 (HBV replication; [5]) | CC50 at 24 h (in vitro; [7]) | log reduction at 1 µM (HSV-1; [8]) | log reduction at 5 µM (HSV-1; [9]) | MIC80 [1, 10] | EC50 (HBV replication; [11]) | also measured |
| --- | --- | --- | --- | --- | --- | --- | --- | --- | --- | --- |
| C#CCCC1(CCNC(=O)c2cc(O)c(=O)c(O)cc2C)N=N1 [compound 384] | 17.6 ± 8.9 µM | 111 ± 48.8 µM | 3.5 µM (≈ 1.1 µg/mL) | 0.66 ± 0.7 µM |  |  |  |  |  | log reduction at 5 µM (HSV-1; [2]): 0.77 |
| Cc1cc(O)c(=O)c(O)cc1C(=O)N1CCCCC1 [compound 390] | 24.9 ± 11.6 µM | 106 ± 64.6 µM | 22 µM (≈ 5.79 µg/mL) | 0.31 ± 0.1 µM |  |  |  |  |  | CC50 at 24 h (in vitro; CC50): > 20 µM; log reduction at 5 µM (HSV-1; [2]): 0.52; EC50 (HBV replication; [6]): 0.31 µM |
| CC(C)S(=O)(=O)c1ccc(S(=O)(=O)C(C)C)c(O)c(=O)c1O [compound 538] |  |  |  |  | 100 µM | 0.74 | 0.21 | 50 µM (≈ 17.5 µg/mL) | 50 µM | CC50 at 24 h (in vitro; CC50): 100 µM |
| CCCCSc1cccc(O)c(=O)c1O [compound 693] |  |  |  |  | 13.5 µM | 0.25 | 5.64 | 0.9 µM (≈ 0.204 µg/mL) | 47.3 µM | MIC80 [1, 12]: ≤ 1 µM |
| CC(C)Sc1cccc(O)c(=O)c1O [compound 695] |  |  |  |  | 21.1 µM | -0.23 | 2.28 | 1.6 µM (≈ 0.34 µg/mL) | 26.8 µM |  |
| CC(C)Sc1ccc(SC(C)C)c(O)c(=O)c1O [compound 696] |  |  |  |  | 9.3 µM | 0.08 | 5.82 | 1.4 µM (≈ 0.401 µg/mL) | 12.7 µM | log reduction at 0.33 µM (HSV-1; Table 3 sulfur compounds): -0.06 |
| Cc1ccc(S(=O)(=O)c2cccc(O)c(=O)c2O)cc1 [compound 697] |  |  |  |  | 35.3 µM |  | 0.01 | 49 µM (≈ 14.3 µg/mL) | 49.1 µM |  |
| CCCCCCS(=O)(=O)c1cccc(O)c(=O)c1O [compound 699] |  |  |  |  | 13.1 µM | 0.2 | 4.39 | 10 µM (≈ 2.86 µg/mL) | 6.83 µM |  |
| CCCCCCS(=O)(=O)c1ccc(S(=O)(=O)CCCCCC)c(O)c(=O)c1O [compound 700] |  |  |  |  | 46 µM | 0.57 | 2.01 | 50 µM (≈ 21.7 µg/mL) | 49.8 µM | log reduction at 0.33 µM (HSV-1; Table 3 sulfur compounds): 0.49; Inhibition of HSV-1 (HSV-1; in words): showed inhibition of HSV-1 |
| O=c1c(O)cccc(SCc2ccccc2)c1O [compound 702] |  |  |  |  |  | 3.23 | 5.79 | 0.56 µM (≈ 0.146 µg/mL) | 25 µM | log reduction at 0.33 µM (HSV-1; Table 3 sulfur compounds): 0.13; IC50 (human RNaseH1; Table 3 sulfur compounds, read-out: Hu RNaseH IC50): 31.7 µM; MIC80 [1, 12]: ≤ 1 µM |
| O=c1c(O)c(S(=O)(=O)Cc2ccccc2)ccc(S(=O)(=O)Cc2ccccc2)c1O [compound 706] |  |  |  |  | 73 µM |  | 0.59 | 49 µM (≈ 21.9 µg/mL) | 51.4 µM |  |
| COC(=O)[C@H](CCSC)NC(=O)c1cc(O)c(=O)c(O)cc1C [compound 796] | 36 ± 24.1 µM | 83.3 ± 40.2 µM | 18 µM (≈ 6.14 µg/mL) | 1.1 ± 0.1 µM |  |  |  |  |  |  |
| Cc1cc(O)c(=O)c(O)cc1C(=O)N1CCN(C(=O)c2ccco2)CC1 [compound 800] | 16.5 ± 11.4 µM | 46.3 ± 10.2 µM | 26 µM (≈ 9.32 µg/mL) | 0.52 ± 0.2 µM |  |  |  |  |  |  |
| CCCCCCSc1ccc(SCCCCCC)c(O)c(=O)c1O [compound 841] |  |  |  |  | 7.8 µM |  |  |  | 10.7 µM | log reduction at 1 µM (HSV-1; read-out: HSV-1 suppression 1 μM, Table 3 sulfur compounds): 4.99; log reduction at 5 µM (HSV-1; read-out: HSV-1 suppression 5 μM, Table 3 sulfur compounds): 4.77; MIC80 ([1]; 48 h, read-out: C. neoformans MIC80, Table 3 sulfur compounds, 48 h, 35° C.): 5 µM (≈ 1.85 µg/mL) |
| Cc1cc(O)c(=O)c(O)cc1C(=O)N1CCN(C(=O)c2cccnc2)CC1 [compound 918] | 43.8 ± 10.7 µM | 127 ± 98.1 µM | 50 µM (≈ 18.5 µg/mL) | 1.45 ± 0.4 µM |  |  |  |  |  |  |
| Cc1cc(O)c(=O)c(O)cc1C(=O)N1CCN(c2ncccn2)CC1 [compound 1016] | 24.6 ± 40 µM | 5.1 ± 2.7 µM | 18 µM (≈ 6.16 µg/mL) | 0.9 µM |  |  |  |  |  |  |
| Cc1cc(O)c(=O)c(O)cc1C(=O)N1CCN(C(c2ccc(F)cc2)c2ccc(F)cc2)CC1 [compound 1017] | 3.9 ± 1.4 µM | 29.9 ± 10.7 µM | 6 µM (≈ 2.8 µg/mL) | 5.6 µM |  |  |  |  |  | EC50 (HBV replication; [6]): > 2 µM |
| Cc1cc(O)c(=O)c(O)cc1C(=O)N1CCN(Cc2c(F)cccc2Cl)CC1 [compound 1021] | 10.4 ± 7.3 µM | 44 ± 46.2 µM | 4.5 µM (≈ 1.83 µg/mL) | 3.05 ± 0.6 µM |  |  |  |  |  | EC50 (HBV replication; [6]): > 2 µM |
